Here are results for 14 compounds from patent US5759836A, “Osteoarthritis-associated inducable isoform of nitric oxide synthetase” (priority 1995, dated 1998).

The subject of test [1] is human chondrocyte iNOS. The following applies: cited from earlier work.
The test system of test [2] is NOS. The settings on record: cited from earlier work.
Test [3] deals with iNOS. The test is described as follows: iNOS expression in stimulated rat chondrosarcomas. The settings on record: for effect on iNOS in rat chondrosarcomas: LPS/cytokine-stimulated, L-NMMA 500 μM, indomethacin 20 μM; for inhibition of iNOS expression in rat chondrosarcomas: 72 h, added 1 h prior to cytokines. The format is cell-based. Here is the method: NSAIDs were tested in: (FIG. 5A) rat chondrosarcomas stimulated with LPS, and (FIG. 5B) unstimulated OA cartilage (n=3).

For test [4], the system named is OA-NOS. Description: Sensitivity of OA-NOS to agents (Table 3 comparison).
The subject of test [5] is iNOS. The test is described as follows: Nitrite accumulation in LPS-stimulated RAW 264.7 murine macrophages (Griess method). It counts as cell-based. The following applies: for inhibition at 5 µM: RAW264.7, read-out: Nitrite released, % inhibition, 5 μM (Table 2: 5 μm). Here is the method: Effects of NSAIDs on Nitrite Accumulation. […] The expression and activity of iNOS were monitored by estimation of the stable end-product: nitrites.
concentrations of NSAIDs for 2 h followed by addition of 100 ng/ml of LPS
After 16-18 h of incubation, the medium was used to estimate the
accumulation of nitrite by the Greiss method (Green et al., Anal Biochem.
(§1) The specific activity of iNOS was determined in cellfre
(§2) extracts at a given time period as described. The nitrite and specific
activity data are representative of mean ± SD value, as determined by
student t test, for 10 and 4 independent experiments, respectively. The p
values described are compared with LPSstimulated cells. […]
(In general: The Griess reaction detects nitrite, a stable product of nitric oxide.)

Test [6] has as its system OA-NOS. Description: Nitrite release by OA-affected articular cartilage, ex vivo organ culture. The format is cell-based, human.
Test [7] concerns COX. The following applies: cited from earlier work.
Test [8] deals with iNOS. The test is described as follows: iNOS protein expression, Western blot, LPS-treated RAW 264.7 cells. The format is cell-based, murine. Here is the method: Western Blot Analysis. Equal amounts of protein (50 μg) estimated by BCA reagent (Pierce, Rockford, Ill.) were loaded onto SDS-PAGE gels and stained to verify the concentrations of various protein fractions by examining the intensities of the protein bands on the gels. Western blot analysis was carried out from the same cell extracts. The Western-blotted membrane was probed with a specific anti-iNOS monoclonal antibody, as specified by Transduction Laboratories (Lexington, Ky.). The blots were developed using the ECL Western blot system (Amersham, Arlington Heights, Ill.). Quantitation of the bands was performed using a densitometer from Molecular Dynamics (Sunnyville, Calif.).
The protein expression data are represented as
ND = not done. NS = not significant.
A Western blot analysis of iNOS protein was carried out in cells treated with […] LPS in the presence and absence of NSAIDs for 16-18 h.

The test system of test [9] is iNOS. The test is described as follows: Specific activity of iNOS in cell-free extracts of RAW 264.7 cells exposed to drug during LPS induction. The format is cell-based, murine. Here is the method: Assays for iNOS in Cell-Free Extracts. […] The reaction mixture for iNOS assay (in cell-free extracts) consists of Tris […] (pH 7.8); BSA 1 mg/ml; DTT 1 mM; CaCl2, 2 mM; FAD 10 μM; BH4 10 μM; L-arginine 30 μM; NADPH 1 mM. The assay mixture for cNOS consists of Tris 50 mM (pH 7.8); L-arginine 50 μM; calmodulin 10 μg/ml; BH4 10 μM; CaCl2 2 mM; NADPH 100 μM. RAW 264.7 cells were induced with LPS in the presence and absence of NSAIDs for 16-18 h. […] Cells were re-pelleted at 4° C. and resuspended in Tris buffer (10 mM, pH 7.4) containing 1 mg/ml each chymostatin, antipain, leupeptin and pepstatin, 1 mM DTT and 1 mM PMSF. Cells were lysed in a Polytron PT 1200 homogenizer (Kinematica AG, Switzerland) after 3 cycles of rapid freeze-thawing. The lysate was centrifuged at 16,000 rpm for 60 min at 4° C., and the supernatants were used as cell-free extracts. […] After 20 min the assays were terminated by heating the reaction mixture at 90° C. for 5 min. The precipitates were removed by centrifuging at 15,000 rpm for 20 min. Ten microliters (≈50,000 cpm) of the supernatant was spotted on activated Avicel TLC plates (Analtech, Newark, Del.). The TLC plates were developed in a solvent system consisting of ethanol:water:ammonia (80:16:4). Quantitation of the spot for L-[^3 3H]-citrulline was performed by a Bioscan System 200 Imaging Scanner. A phosphoimager can also be used for such quantification.
as §1, §2

Test [10] deals with iNOS. Description: In vitro iNOS catalytic activity in cell-free extracts preincubated with drug (L-[3H]-arginine to L-[3H]-citrulline). It counts as biochemical, murine. The settings on record: for inhibition of iNOS catalytic activity in cell-free extracts (specific activity in in vitro assay): 1 mM.
Test [11] has as its system human iNOS. The settings on record: crude lysates; cited from earlier work.
The conditions of test [12]: systemic, rodent; cited from earlier work.
Test [13] has as its system neutrophil. The following applies: data not shown; read-out: ability to inhibit fMet-Leu-Phe-induced neutrophil aggregation (IC50); cited from earlier work.
For test [14], the system named is NF-κB. The following applies: cited from earlier work.
For test [15] the following is noted: rat adjuvant arthritis; cited from earlier work.
Where [16] appears, read: Mus musculus, LPS 100 ng/ml, 16-18 h.

Entries after “also recorded” stand apart in the source; their conditions may differ.

For `C[C@@H]1C[C@H]2[C@@H]3CCC4=CC(=O)C=C[C@]4(C)[C@@]3(F)[C@@H](O)C[C@]2(C)[C@@]1(O)C(=O)CO` [dexamethasone], the “sensitivity of human chondrocyte iNOS” value in test [1] is recorded as “lack of sensitivity”. Besides, the “NOS expression in murine macrophages, endothelial cells and smooth muscles” value in test [2] was “abolishes NOS expression”.

As to `CC(C)Cc1ccc(C(C)C(=O)O)cc1` (stereo not drawn) [ibuprofen], the “effect on iNOS in rat chondrosarcomas” value in test [3] was “no significant effect on iNOS expression”.

Broadly, the inhibition is the share of the control response that was lost under treatment. On to `C[C@]12CCC(=O)C=C1CC[C@@H]1[C@@H]2[C@@H](O)C[C@@]2(C)[C@H]1CC[C@]2(O)C(=O)CO` [Hydrocortisone, hydrocortisone], for which the “sensitivity of human chondrocyte iNOS” value in test [1] was “lack of sensitivity”. The “sensitivity of OA-NOS” value in test [4] is on record as “insensitive; also recorded: not sensitive”. Moreover, the “Nitrite released, % inhibition” value in test [5] (5 μM (Table 2: 5 μm), LPS 100 ng/ml, 16-18 h, 5 µM) is on record as 63.0%. Also, the inhibition at 5 µM in [5] (setting [16]) was greater than 60%. Moreover, the “NOS expression in murine macrophages, endothelial cells and smooth muscles” value in test [2] is recorded as “abolishes NOS expression”. For the same compound, the “effect on iNOS in rat chondrosarcomas” value in [3] was “no significant effect on iNOS expression”.

Regarding `C[C@@H]1C[C@@H]([C@H](O)CC2CC(=O)NC(=O)C2)C(=O)[C@@H](C)C1` [cycloheximide], the inhibition at 3.5 µM in [6] (Homo sapiens, 3.5 μM, 24 h, read-out: inhibition of nitrite accumulation) is greater than 90%. For the same compound, the inhibition at 17.5 µM in test [6] (Homo sapiens, 17.5 μM, 24 h, read-out: inhibition of nitrite accumulation) was greater than 90%. Further, the “block of nitrite accumulation” value in [6] (cycloheximide 35 μM or PDTC 30 μM, 24 h, cytokine/endotoxin-induced and control cartilage) is greater than 90%. Also, in test [4], the “sensitivity of OA-NOS” value is “blocked; also recorded: shows sensitivity”.

As for TGF-β, the “sensitivity of OA-NOS” value in test [4] is “insensitive; also recorded: not sensitive”.

For the compound `COc1ccc2c(c1)c(CC(=O)O)c(C)n2C(=O)c1ccc(Cl)cc1` [Indomethacin, indomethacin], the “COX inhibition” value in test [7] was “a potent inhibitor of COX”. Further, the “rank order of inhibition of spontaneous nitrite accumulation” value in test [6] is recorded as “aspirin>indomethacin>sodium salicylate”. For the same compound, the inhibition at 5 µM was 0% in test [8] (Mus musculus, RAW264.7, read-out: inhibition of iNOS protein expression, 5 μm (Table 2)); roughly 7% in [5] (setting [16]); 2% in test [9] (Mus musculus, RAW264.7, 16 h, read-out: Specific activity, % inhibition, 5 μM (Table 2: 5 μm), cell-free extracts, 16 h). Moreover, in [5], the “extent of inhibition of nitrite accumulation” value is “not appreciably greater than that seen with 5 μM”. Besides, the “inhibition of iNOS specific activity in in vitro assay” value in test [10] (5 μM, 20 min preincubation) worked out at 0%.

In the case of `N=C(N)NN` [aminoguanidine], the “effect on nitrite accumulation / NOS expression in OA cartilage” value in [6] is on record as “inhibited”. Besides, in [4], the “sensitivity of OA-NOS” value is listed as “blocked; also recorded: shows sensitivity”.

On to `NC(=O)N1C(=O)/C(=C(\O)c2cccs2)c2cc(Cl)ccc21` [tenidap], for which, in test [3], the “inhibition of iNOS expression in rat chondrosarcomas” value is ~ 50% and the “effect on iNOS in rat chondrosarcomas” value is “significant inhibition of iNOS”.

Take `O=C(O)CN(CCN(CC(=O)O)CC(=O)O)CC(=O)O` [EDTA, ethylenediaminetetraacetic acid]: in [11], the “human iNOS activity” value is listed as “markedly reduces”.

TNF-α: in test [12], the “arthritis morbidity / protection” value is “increase arthritis morbidity”.

In general, IC50 refers to the concentration that inhibits the measured activity by half. `O=C([O-])c1ccccc1O.[Na+]` [Sodium salicylate, sodium salicylate]: in [7], the “COX inhibition” value is listed as “an ineffective inhibitor of COX”. Besides, the “effect on nitrite accumulation / NOS expression in OA cartilage” value in test [6] is given as “blocked iNOS expression in OA cartilage”. Besides, the “rank order of inhibition of spontaneous nitrite accumulation” value in test [6] was “aspirin>indomethacin>sodium salicylate”. Besides, in [8] (2-3 mM, variable in 4 independent experiments), the “inhibition of iNOS expression” value was 0-35%. For the same compound, in test [8] (5 and 20 mM), the “effect on iNOS expression at increased concentration” value is “did not cause increased inhibition of iNOS expression”. Moreover, in [8] (Mus musculus, RAW264.7, read-out: inhibition of iNOS expression, 2 mM, Western blot, 16-18 h), the inhibition at 2000 µM was roughly 15%. Moreover, the inhibition at 3000 µM was roughly 15% in test [8] (Mus musculus, RAW264.7, read-out: inhibition of iNOS protein expression, 3 mM, approximate, densitometry); roughly 7% in [5] (Mus musculus, RAW264.7, read-out: Nitrite released, % inhibition, 3 mM, LPS 100 ng/ml, 16-18 h); 2% in test [9] (Mus musculus, RAW264.7, 16 h, read-out: Specific activity, % inhibition, 3 mM, cell-free extracts, 16 h). Moreover, the “sensitivity of OA-NOS” value in test [4] was “inhibited; also recorded: shows sensitivity”. In addition, the “Nitrite released, Nitrite” value in [5] (3 mM, LPS 100 ng/ml, 16-18 h) came to 27.1 ± 8.8 µM. Further, the 50% inhibitory concentration (IC50) was 20 mM in test [5] (Mus musculus, RAW264.7, read-out: IC50 with respect to nitrite accumulation) and 3 mM in [13]. Besides, the inhibition at 20000 µM in test [5] (Mus musculus, RAW264.7, read-out: inhibition of accumulation of nitrites, 20 mM, suprapharmacological) is 50%. Besides, the inhibition at 5000 µM in test [5] (Mus musculus, RAW264.7, read-out: inhibition of nitrite accumulation, 5 mM, suprapharmacological) was 15 ± 1%. In addition, in test [9] (3 mM), the “Specific activity of iNOS” value stood at 304.0 ± 48.1 pmol/min/mg protein. For the same compound, the “effect on specific activity of iNOS” value in [9] (NaSal 3 mM, indomethacin 5 μM (Table 1), therapeutic concentrations) is reported as “did not inhibit”. Also, the “inhibition of iNOS catalytic activity in cell-free extracts (specific activity in in vitro assay)” value in test [10] (20 min preincubation) was ~ 1%. For the same compound, the “effect on the catalytic activity of iNOS” value in test [10] (indomethacin 5 μM, sodium salicylate 1 mM) is “no significant differences; also recorded: no significant effect on the catalytic activity of iNOS”. Besides, in test [14] (5-20 mM, suprapharmacological), the “activation of NF-κB” value is given as “interfere in the activation of NF-κB”. The “NF-κB-dependent transcription” value in test [14] (aspirin 3 mM, sodium salicylate 5 mM, luciferase reporter) is recorded as “inhibit NF-κB-dependent transcription”. In test [14] (same concentrations (aspirin 3 mM; sodium salicylate 5 mM)), the “NF-κB activation, gel shift assays” value is listed as “no significant effect on NF-κB activation”. In addition, in test [3], the “inhibition of iNOS expression in rat chondrosarcomas” value was ~ 55%. Further, the “effect on iNOS in rat chondrosarcomas” value in test [3] was “significant inhibition of iNOS”.

For the compound `N=C(N)NCCC[C@H](N)C(=O)O` [L-arginine], the “NO biosynthesis, paw swelling and histopathological changes in ankle joints” value in test [15] was “competitively reversed the effect of L-NMMA”.

With `CC(=O)n1ccnc1` [N-acetylimidazole], the “cyclooxygenase and peroxidase activity of COX” value in test [7] is “inhibits both the cyclooxygenase and the peroxidase activity of COX”. Moreover, the “inhibition of iNOS catalytic activity in cell-free extracts (specific activity in in vitro assay)” value in [10] (20 min preincubation) is ~ 74%; in test [10] (20 min preincubation, listed as NAI), 74%.

As for `CC(=O)Nc1ccc(O)cc1` [Acetaminophen, acetaminophen], the “block of nitrite production” value in test [5] (60-120 μM, LPS-stimulated) is reported as 1±1%. The “effect on iNOS in rat chondrosarcomas” value in test [3] is “no significant effect on iNOS expression”.
